Test results: the supplement of paper PMC10627819

Key:
Assay in all cases: Bliss interaction score (quartile over a dose matrix) (fitness difference); higher = more antagonism (negative = synergy)
B. subtilis 168 = system: B. subtilis 168
Outline: (§1)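 Each OD595 reading at entry into stationary phase was scaled to the robust mean of the untreated wells on its plate, with a ceiling of 1. These ratios define fitness, and single-drug fitness was inferred from combinations. The Bliss score compares observed fitness with the product-based expectation and is reported as quartiles across all replicate types, technical, biological and donor/recipient.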

S. aureus DSM 20231 = system: S. aureus DSM 20231
Outline: as §1

S. aureus Newman = system: S. aureus Newman
Outline: as §1

S. pneumoniae D39V = system: S. pneumoniae D39V
Outline: as §1
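Also: first quartile when negative (synergy) and third quartile when positive (antagonism).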

Row | Compound | Bliss interaction score (B. subtilis 168) | Bliss interaction score (S. aureus DSM 20231) | Bliss interaction score (S. aureus Newman) | Bliss interaction score (S. pneumoniae D39V)
1 | CN(C)[C@@H]1C(O)=C(C(N)=O)C(=O)[C@@]2(O)C(O)=C3C(=O)c4c(O)ccc(Cl)c4[C@@](C)(O)[C@H]3C[C@@H]12 [Clortetracycline] + CO[C@H]1/C=C/O[C@@]2(C)Oc3c(C)c(O)c4c(O)c(c(/C=N/N5CCN(C)CC5)c(O)c4c3C2=O)NC(=O)/C(C)=C\C=C\[C@H](C)[C@H](O)[C@@H](C)[C@@H](O)[C@@H](C)[C@H](OC(C)=O)[C@@H]1C [Rifampicin] | -0.26 | -0.0529 | 0.0541 | 0.0664
2 | CN(C)[C@@H]1C(O)=C(C(N)=O)C(=O)[C@@]2(O)C(O)=C3C(=O)c4c(O)ccc(Cl)c4[C@@](C)(O)[C@H]3C[C@@H]12 [Clortetracycline] + COc1c(N2C[C@@H]3CCCN[C@@H]3C2)c(F)cc2c(=O)c(C(=O)O)cn(C3CC3)c12 [Moxifloxacin] | -0.0182 | 0.119 | 0.101 | 0.0374
3 | CN(C)[C@@H]1C(O)=C(C(N)=O)C(=O)[C@@]2(O)C(O)=C3C(=O)c4c(O)ccc(Cl)c4[C@@](C)(O)[C@H]3C[C@@H]12 [Clortetracycline] + COc1cc(Cc2cnc(N)nc2N)cc(OC)c1OC [Trimethoprim] | 0.135 | 0.0736 | 0.102 | -0.0376
4 | CN(C)[C@@H]1C(O)=C(C(N)=O)C(=O)[C@@]2(O)C(O)=C3C(=O)c4c(O)ccc(Cl)c4[C@@](C)(O)[C@H]3C[C@@H]12 [Clortetracycline] + COc1ccc(C[C@H](N)C(=O)N[C@H]2[C@@H](O)[C@H](n3cnc4c(N(C)C)ncnc43)O[C@@H]2CO)cc1 [Puromycin] | -0.0605 | -0.0681 | -0.0798 | -0.0852
5 | CN(C)[C@@H]1C(O)=C(C(N)=O)C(=O)[C@@]2(O)C(O)=C3C(=O)c4c(O)ccc(Cl)c4[C@@](C)(O)[C@H]3C[C@@H]12 [Clortetracycline] + COc1cccc2c1C(=O)c1c(O)c3c(c(O)c1C2=O)C[C@@](O)(C(=O)CO)C[C@@H]3O[C@H]1C[C@H](N)[C@H](O)[C@H](C)O1 [Doxorubicin] | 0.0883 | 0.0615 | -0.0472 | -0.182
6 | CN(C)[C@@H]1C(O)=C(C(N)=O)C(=O)[C@@]2(O)C(O)=C3C(=O)c4c(O)ccc(Cl)c4[C@@](C)(O)[C@H]3C[C@@H]12 [Clortetracycline] + C[C@@H]1O[C@@H]1P(=O)(O)O [Fosfomycin] | 0.0913 | -0.158 | -0.161 | 0.0517
7 | CN(C)[C@@H]1C(O)=C(C(N)=O)C(=O)[C@@]2(O)C(O)=C3C(=O)c4c(O)ccc(Cl)c4[C@@](C)(O)[C@H]3C[C@@H]12 [Clortetracycline] + C[C@@H](O)[C@H]1C(=O)N2C(C(=O)O)=C(SCCNC=N)C[C@H]12 [Imipenem] | 0.194 | 0.039 | 0.0268 | -0.0487
8 | CN(C)[C@@H]1C(O)=C(C(N)=O)C(=O)[C@@]2(O)C(O)=C3C(=O)c4c(O)ccc(Cl)c4[C@@](C)(O)[C@H]3C[C@@H]12 [Clortetracycline] + C[C@H]1COc2c(N3CCN(C)CC3)c(F)cc3c(=O)c(C(=O)O)cn1c23 [Levofloxacin] | 0.035 | 0.115 | 0.0876 | 0.0525
9 | CN(C)[C@@H]1C(O)=C(C(N)=O)C(=O)[C@@]2(O)C(O)=C3C(=O)c4c(O)ccc(Cl)c4[C@@](C)(O)[C@H]3C[C@@H]12 [Clortetracycline] + C[C@H]1c2cccc(O)c2C(=O)C2=C(O)[C@]3(O)C(=O)C(C(N)=O)=C(O)[C@@H](N(C)C)[C@@H]3[C@@H](O)[C@@H]21 [Doxycycline] | -0.0687 | -0.0625 | -0.0257 | -0.0483
10 | CN(C)[C@@H]1C(O)=C(C(N)=O)C(=O)[C@@]2(O)C(O)=C3C(=O)c4c(O)ccc(Cl)c4[C@@](C)(O)[C@H]3C[C@@H]12 [Clortetracycline] + C[n+]1ccc(-c2cc[n+](C)cc2)cc1 [Paraquat] | 0.0974 | 0.0363 | -0.0418 | -0.026
